# Results taken from PubChem BioAssay (NCI).
# Values joined by “and” are separate entries in the source; they are usually repeats but may differ in a detail not shown here. Equal values may be shown once.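 A five-concentration, 48-hour dose response in 96-well plates underlies each endpoint, interpolated linearly between surrounding concentrations. GI50: concentration for 50% inhibition of growth. TGI is the concentration that stops growth completely.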
# Key:
# Experiment in all cases: NCI anticancer screen, dose series, 48 h
# SW-620 colon = test system: SW-620 colon
# SF-268 CNS = test system: SF-268 CNS
# RXF 393 renal = test system: RXF 393 renal
# SK-OV-3 ovarian = test system: SK-OV-3 ovarian
# HOP-62 NSCLC = test system: HOP-62 NSCLC
# SN12C renal = test system: SN12C renal
# KM12 colon = test system: KM12 colon
# A549 NSCLC = test system: A549 NSCLC
# SNB-75 CNS = test system: SNB-75 CNS
# SF-295 CNS = test system: SF-295 CNS
# HCT-15 colon = test system: HCT-15 colon
# COLO 205 colon = test system: COLO 205 colon
# HS 578T breast = test system: HS 578T breast
Compound,TGI (SW-620 colon),TGI (SF-268 CNS),TGI (RXF 393 renal),TGI (SK-OV-3 ovarian),TGI (HOP-62 NSCLC),TGI (SN12C renal),TGI (KM12 colon),TGI (A549 NSCLC),TGI (SNB-75 CNS),TGI (SF-295 CNS),TGI (HCT-15 colon),TGI (COLO 205 colon),TGI (HS 578T breast),GI50 (SW-620 colon),GI50 (SF-268 CNS),GI50 (RXF 393 renal),GI50 (SN12C renal),GI50 (KM12 colon),GI50 (SNB-75 CNS),GI50 (HCT-15 colon)
CC1=CC(=C(c2ccc(N)c(C)c2)c2ccc(N)c(C)c2)C=CC1=N,17.7 µM,17.8 µM,51.2 µM,30.4 µM,10.4 µM,4.31 µM,12.8 µM,28.6 µM,8.91 µM,11.7 µM,> 61.4 µM,5.87 µM,,,,,,,,
CC[N+](C)(C)c1ccc(C(=C2C=CC(=[N+](C)C)C=C2)c2ccc(N(C)C)cc2)cc1,52.1 µM,32.4 µM,> 100 µM,55 µM,41.2 µM,> 100 µM,17.5 µM,> 100 µM,33.8 µM,70.1 µM,89.4 µM,> 100 µM,,,,,,,,
N#Cc1c(-c2cccc(Br)c2)cc(-c2ccc(Cl)cc2)nc1N,36 µM,73.6 µM,34.6 µM,56.6 µM,79.1 µM,35.9 µM,60.4 µM,57 µM,,35.5 µM,30 µM,27.2 µM,43.1 µM,,,,,,,
COc1cc2c(cc1C)NC(=O)/C2=C\c1cccnc1,84.8 µM,50 µM,43.1 µM,43.9 µM,51.9 µM,37.8 µM,35.6 µM,71.7 µM,50.2 µM,35 µM,> 100 µM,39.8 µM,96.6 µM,,,,,,,
COc1cccc2c1C(=O)c1c(O)c3c(c(O)c1C2=O)CC(O)(C(C)=O)CC3OC1CC([N+](C)(C)C)C(O)C(C)O1 (centres undefined),> 100 µM,> 100 µM,> 100 µM,> 100 µM,> 100 µM,> 100 µM,> 100 µM,> 100 µM,> 100 µM,> 100 µM,> 100 µM,> 100 µM,,,,,,,,
COC1C(=[N+]=[N-])C(=O)NC(=O)N1C1OC(COC(c2ccccc2)(c2ccccc2)c2ccccc2)C(O)C1O (centres undefined),35.8 µM,35.7 µM,,49.6 µM,41.1 µM,32.7 µM,30.5 µM,31.9 µM,29.5 µM,37.4 µM,36.8 µM,38 µM,,,,,,,,
OC12c3ccccc3C1CCCCCCCCCC21OCCCO1 (centres undefined),> 100 µM,> 100 µM,,> 100 µM,> 100 µM,> 100 µM,> 100 µM,> 100 µM,> 100 µM,> 100 µM,> 100 µM,> 100 µM,,,,,,,,
CCOC(=O)c1csc(NC(=O)CN2CCCCC2)n1,> 100 µM,> 100 µM,> 100 µM,> 100 µM,> 100 µM,,> 100 µM,> 100 µM,> 100 µM,> 100 µM,> 100 µM,> 100 µM,> 100 µM,,,,,,,
COC(=O)C1C(O)C(C)C(O)C(C)/C=C\C=C(C)C(=O)Nc2c(C)c(OC(C)=O)c3c(c2O)C(=O)C(C)=C2OCOC(=C23)C(C)=CC(C)(O)C(O)C(C)C1O (centres undefined),39.6 µM and > 100 µM,> 100 µM,51.9 µM and > 100 µM,> 100 µM,> 100 µM,> 100 µM,> 100 µM,> 100 µM,> 100 µM,> 100 µM,50.8 µM and > 100 µM,36.3 µM and 58.6 µM,> 100 µM,20.1 µM,39.4 µM,20.9 µM and > 100 µM,49 µM and > 100 µM,25.1 µM and > 100 µM,35.3 µM and 5.07 µM,19.4 µM and > 100 µM
O=S(=O)(O)c1cccc2ccc(O)c(N=Nc3ccc(S(=O)(=O)c4ccc(N=Nc5c(O)ccc6cccc(S(=O)(=O)O)c56)cc4)cc3)c12,> 100 µM,> 100 µM,> 100 µM,> 100 µM,> 100 µM,> 100 µM,> 100 µM,> 100 µM,> 100 µM,> 100 µM,> 100 µM,> 100 µM,> 100 µM,,,,,,,
O=S(=O)(O)c1ccc(N=Nc2c(O)ccc3ccccc23)cc1,> 100 µM,> 100 µM,> 100 µM,> 100 µM,> 100 µM,> 100 µM,> 100 µM,> 100 µM,> 100 µM,> 100 µM,> 100 µM,> 100 µM,> 100 µM,,,,,,,
O=S(=O)(O)c1cc(S(=O)(=O)O)c2c(N=Nc3ccccc3)c(O)ccc2c1,> 100 µM,> 100 µM,> 100 µM,> 100 µM,> 100 µM,> 100 µM,> 100 µM,> 100 µM,> 100 µM,> 100 µM,> 100 µM,> 100 µM,> 100 µM,,,,,,,
